From ChEMBL document CHEMBL6114969, “Ultra-short lipopeptides containing d-amino acid exhibiting excellent stability and antibacterial activity against gram-positive bacteria” (Eur J Med Chem, 2025)
≈ marks a conversion by molar mass, not a printed value. Calls of active or inactive are those of the source. No cut-off for these calls is given here.

Legend:
Staphylococcus aureus [1] = experiment: Antibacterial activity against methicillin-resistant Staphylococcus aureus ATCC 33591 infected in Balb/c mouse model of acute systemic infection assessed as reduction in inflammatory cell infiltration in kidney at 10 mg/kg, ip measured after 5 days by H and E staining based analysis; assay type: functional, organism-based; conditions: time 5.0 day
[2] = Stability in mouse serum assessed as half life measured upto 96 hrs by RP-HPLC analysis; assay type: ADME, cell-free
Staphylococcus aureus [3] = experiment: Induction of ROS production in methicillin-resistant Staphylococcus aureus ATCC 33591 at 1 to 4 times MIC measured upto 360 mins by DCFH-DA dye based analysis; assay type: functional, organism-based
[4] = Toxicity in Balb/c mouse assessed as change in serum ALT level at 20 to 80 mg/kg, ip measured after 7 days; assay type: organism-based; conditions: in vivo, 168 h, dose 20-80 mg/kg, time 7 day
Staphylococcus aureus [5] = experiment: Induction of drug resistance in methicillin-resistant Staphylococcus aureus ATCC 33591 at sub-MIC measured after 15 passages; assay type: functional, organism-based
Staphylococcus aureus [6] = experiment: (§1) Antibacterial activity against methicillin-resistant Staphylococcus aureus ATCC 33591 infected in Balb/c mouse model of skin wound infection assessed as wound heal at 10 mg/kg, ip administered thrice at 1, 24 and 48 hrs post-infection measured after 14 days in presence of polymyxin B relative to control; assay type: functional; conditions: time 14 day
Staphylococcus aureus [7] = experiment: Antibacterial activity against methicillin-resistant Staphylococcus aureus ATCC 33591 infected in Balb/c mouse model of acute systemic infection assessed as reduction in alveolar contraction in lung at 10 mg/kg, ip measured after 5 days by H and E staining based analysis; assay type: functional, organism-based; conditions: time 5.0 day
Staphylococcus aureus [8] = experiment: as §1, with “reduction in IL-1beta activity in skin” for “wound heal”, “by IHC analysis” for “relative to control”; assay type: functional, organism-based; conditions: time 14.0 day
Staphylococcus aureus [9] = experiment: Antibacterial activity against methicillin-resistant Staphylococcus aureus ATCC 33591 infected in Balb/c mouse model of acute systemic infection assessed as reduction in bacterial count in lung at 10 mg/kg, ip measured after 5 days; assay type: functional, organism-based; conditions: time 5.0 day
Staphylococcus aureus [10] = experiment: Antibacterial activity against methicillin-resistant Staphylococcus aureus ATCC 33591 infected in Balb/c mouse model of skin wound infection assessed as reduction in keratosis in wound surface at 10 mg/kg, ip administered thrice at 1, 24 and 48 hrs post-infection measured after 14 days in presence of polymyxin B by IHC analysis; assay type: functional, organism-based; conditions: time 14.0 day
Staphylococcus aureus [11] = experiment: Antibacterial activity against methicillin-resistant Staphylococcus aureus ATCC 33591 infected in Balb/c mouse model of acute systemic infection assessed as reduction in inflammatory cell infiltration in liver at 10 mg/kg, ip measured after 5 days by H and E staining based analysis; assay type: functional, organism-based; conditions: time 5.0 day
Staphylococcus aureus [12] = experiment: Induction of cell membrane damage in methicillin-resistant Staphylococcus aureus ATCC 33591 assessed as nucleic acid leakage at 2 to 8 times MIC measured upto 360 mins by absorbance based assay; assay type: functional, organism-based
Staphylococcus aureus [13] = experiment: Destruction of cell membrane in methicillin-resistant Staphylococcus aureus ATCC 33591 measured upto 360 mins by absorbance based assay; assay type: functional, organism-based
[14] = Toxicity in Balb/c mouse assessed as cell swelling in liver at 80 mg/kg, ip measured after 7 days by H and E staining based analysis; assay type: organism-based; conditions: in vivo, 168 h, time 7 day
Staphylococcus aureus [15] = experiment: Induction of cytoplasmic membrane depolarization in methicillin-resistant Staphylococcus aureus ATCC 33591 incubated upto 20 mins by DiSC3-5 dye based analysis; assay type: functional, organism-based
[16] = Toxicity in Balb/c mouse assessed as cell swelling in lung at 80 mg/kg, ip measured after 7 days by H and E staining based analysis; assay type: organism-based; conditions: in vivo, 168 h, time 7 day
Staphylococcus aureus [17] = experiment: Antibacterial activity against drug-resistant Staphylococcus aureus ATCC 25923 incubated for 18 to 24 hrs; assay type: functional; conditions: time 18-24 hrs
Staphylococcus aureus [18] = experiment: Synergistic antibacterial activity against methicillin-resistant Staphylococcus aureus ATCC 33591 assessed as fractional inhibitory concentration index upto 2 times MIC incubated for 18 to 24 hrs in presence of gentamicin by checkerboard assay; assay type: functional; conditions: time 18-24 hrs
Staphylococcus aureus [19] = experiment: Induction of morphological changes in methicillin-resistant Staphylococcus aureus ATCC 33591 assessed as bacterial membrane folds at 2 times MIC incubated for 2 hrs by SEM analysis; assay type: functional, organism-based
Staphylococcus aureus [20] = experiment: Antibacterial activity against methicillin-resistant Staphylococcus aureus ATCC 33591 assessed as fold change in MIC incubated for 18 to 24 hrs in presence of 10 percent mouse serum by broth microdilution method; assay type: functional; conditions: time 18-24 hrs
Staphylococcus aureus [21] = experiment: Inhibition of gentamicin-induced drug resistance in Staphylococcus aureus ATCC 25923 at sub-MIC measured upto 15 passages; assay type: functional, organism-based
[22] = Toxicity in Balb/c mouse assessed as inflammatory cell infiltration in kidney at 80 mg/kg, ip measured after 7 days by H and E staining based analysis; assay type: organism-based; conditions: in vivo, 168 h, time 7 day
[23] = Toxicity in Balb/c mouse assessed as cell swelling in kidney at 80 mg/kg, ip measured after 7 days by H and E staining based analysis; assay type: organism-based; conditions: in vivo, 168 h, time 7 day
[24] = Toxicity in Balb/c mouse assessed as change in spleen co-efficient at 20 to 80 mg/kg, ip measured after 7 days; assay type: organism-based; conditions: in vivo, 168 h, dose 20-80 mg/kg, time 7 day
[25] = Hemolytic activity in mouse Red blood cells incubated for 1 hr by absorbance based analysis; assay type: toxicity, cell-based; conditions: erythrocyte
[26] = test system: Staphylococcus epidermidis; experiment: Antibacterial activity against Staphylococcus epidermidis ATCC 12228 incubated for 18 to 24 hrs by broth microdilution method; assay type: functional; conditions: time 18-24 hrs
Staphylococcus aureus [27] = experiment: Antibacterial activity against methicillin-resistant Staphylococcus aureus ATCC 33591 infected in Balb/c mouse model of skin wound infection assessed as crusted back wound at 10 mg/kg, ip administered thrice at 1, 24 and 48 hrs post-infection measured after 9 days in presence of polymyxin B relative to control; assay type: functional; conditions: time 9 day
Staphylococcus aureus [28] = experiment: Synergistic antibacterial activity against methicillin-resistant Staphylococcus aureus ATCC 33591 assessed as fractional inhibitory concentration index upto 2 times MIC incubated for 18 to 24 hrs in presence of polymyxin B by checkerboard assay; assay type: functional; conditions: time 18-24 hrs
Staphylococcus aureus [29] = experiment: Antibacterial activity against methicillin-resistant Staphylococcus aureus ATCC 33591 infected in Balb/c mouse model of acute systemic infection assessed as reduction in bleeding in heart at 10 mg/kg, ip measured after 5 days by H and E staining based analysis; assay type: functional, organism-based; conditions: time 5.0 day
Staphylococcus aureus [30] = experiment: Antibacterial activity against polymyxin B-resistant methicillin-resistant Staphylococcus aureus ATCC 33591 incubated for 18 to 24 hrs; assay type: functional; conditions: time 18-24 hrs
Staphylococcus aureus [31] = experiment: Antibacterial activity against methicillin-resistant Staphylococcus aureus ATCC 33591 infected in Balb/c mouse model of acute systemic infection assessed as reduction in follicular structure loss in spleen at 10 mg/kg, ip measured after 5 days by H and E staining based analysis; assay type: functional, organism-based; conditions: time 5.0 day
Staphylococcus aureus [32] = experiment: Antibacterial activity against methicillin-resistant Staphylococcus aureus ATCC 33591 infected in Balb/c mouse model of acute systemic infection assessed as reduction in bleeding in kidney at 10 mg/kg, ip measured after 5 days by H and E staining based analysis; assay type: functional, organism-based; conditions: time 5.0 day
Staphylococcus aureus [33] = experiment: Antibacterial activity against methicillin-resistant Staphylococcus aureus ATCC 33591 infected in Balb/c mouse model of acute systemic infection assessed as reduction in hemorrhage in lung at 10 mg/kg, ip measured after 5 days by H and E staining based analysis; assay type: functional, organism-based; conditions: time 5.0 day
Staphylococcus aureus [34] = experiment: Synergistic bactericidal activity against persistent methicillin-resistant Staphylococcus aureus ATCC 33591 incubated for 18 to 24 hrs in presence of vancomycin by time-kill assay; assay type: functional, organism-based; conditions: time 18-24 hrs
Staphylococcus aureus [35] = experiment: Destruction of cell membrane in methicillin-resistant Staphylococcus aureus ATCC 33591 at 2 to 8 times MIC by absorbance based assay; assay type: functional, organism-based; conditions: time <= 360.0 min

With `CCCCCCCCCCCC(=O)N[C@H](CCCNC(=N)N)C(=O)N[C@H](CCCNC(=N)N)C(=O)N[C@H](Cc1c[nH]c2ccccc12)C(=O)O` the Activity (Staphylococcus aureus [1]) was “Active”, the half-life [2] was greater than 48 h and the Activity (Staphylococcus aureus [3]) was “Active”. The Activity [4] was “Non-toxic”, the Activity (Staphylococcus aureus [5]) was “inactive” and the Activity (Staphylococcus aureus [6]) was 100%. The Activity (Staphylococcus aureus [7]) was “Active”, the Activity (Staphylococcus aureus [8]) was “Active” and the Activity (Staphylococcus aureus [9]) was “Active”. The Activity (Staphylococcus aureus [10]) was “Active”, the Activity (Staphylococcus aureus [11]) was “Active” and the Activity (Staphylococcus aureus [12]) was “Active”. For the same molecule, the Activity (Staphylococcus aureus [13]) was “Dose-dependent-effect”, the Activity [14] was “Toxic” and the Activity (Staphylococcus aureus [15]) was “Dose-dependent-effect; Compound Activity Was Slightly Weaker Than Triton X-100”. For the same molecule, the Activity [16] was “Toxic”, the MIC (Staphylococcus aureus [17]) was 8 µM (≈ 5.59 µg/mL) and the “fractional inhibitory concentration index (FICI)” value (Staphylococcus aureus [18]) was 0.125. The Activity (Staphylococcus aureus [19]) was “Active”, the “fold change (FC)” value (Staphylococcus aureus [20]) was 8 and the inhibition (Staphylococcus aureus [21]) was “Active”. For the same molecule, the Activity [22] was “Toxic”, the Activity [23] was “Toxic” and the Activity [24] was “Non-toxic”. The HC10 [25] was 64 µM, the MIC [26] was 2 µM (≈ 1.4 µg/mL) and the Activity (Staphylococcus aureus [27]) was 100%. For the same molecule, the “fractional inhibitory concentration index (FICI)” value (Staphylococcus aureus [28]) was 0.125, the Activity (Staphylococcus aureus [29]) was “Active” and the MIC (Staphylococcus aureus [30]) was 16 µM (≈ 11.2 µg/mL). The Activity (Staphylococcus aureus [31]) was “Active”, the Activity (Staphylococcus aureus [32]) was “Active” and the Activity (Staphylococcus aureus [33]) was “Active”. For the same molecule, the Activity (Staphylococcus aureus [34]) was “Dose-dependent-effect” and the Activity (Staphylococcus aureus [35]) was “Time-dependent-effect”.
